{"source": "patent US8247609B2", "about": "“Aminoacid derivatives containing a disulfanyl group in the form of mixed disulfanyl and aminopeptidase N inhibitors” (Pharamleads, priority 2005, dated 2012)", "key": {"Log Kow": {"assay": "Log Kow", "format": "physicochemical"}, "male OF1 mice": {"system": "male OF1 mice", "assay": "Hot plate test (52° C., jump latency) in mice", "format": "in vivo, mouse", "description": "Hot plate test: this test relates to the licking and jumping reflex in mice on a plate heated at 52° C. (measurement of jump latency in the examples given). The results are expressed in % of maximum possible effect (% MPE), i.e., expressed as a percentage of analgesia, using the following equation:\nMaximum latency time=240 seconds.\nThe results are expressed in term of mean±SEM. The differences observed are considered significant when the values of p are less than 0.05. The test used is an ANOVA test with a multiple comparison test.\nCompound 15 is dissolved in a water/mannitol mixture (50 mg/ml). Jump latency times are measured 10 min after the injections by intravenous route.\nCompound 15 is dissolved in a ethanol/Cremophor® EL/water mixture. Jump latency times are measured 10 min after intravenous injection.\nCompound 15 is dissolved in an ethanol/PEG400/water 10/40/50 mixture.\nCompounds 15 and A are dissolved in an ethanol/Cremophor EL/water 10/10/80 mixture. Jump latency times are measured 10 min after intravenous injection.\nThe analgesia produced by morphine or compound 15 in mice (male OF1) in the hot plate test (52° C.) was measured. Morphine in H2O/NaCl, 9/1000) or compound 15 dissolved in the vehicle EtOH/Cremophor El/water (10/10/80) is injected by IV. The results are measured 10 minutes after injection and latency time is 240 seconds (equation given in examples 15 and 17).\nThe analgesia produced by Δ^9 THC in mice (male OF1) in the plate hot test (52° C.) was measured. Δ^9 THC, dissolved in the vehicle EtOH/Cremophor EL/water (10/10/80), is injected by IV route. The results are measured 10 minutes after injection and latency time is 240 seconds (equation given in examples 15 and 17).\nThis test relates to the licking and jumping reflex in mice on a plate heated at 52° C. The results are expressed in % of maximum possible effect (% MPE), i.e., expressed as a percentage of analgesia, using the following equation:\nMaximum latency time=240 s.\nThe mice weigh 25-30 grams.\nJump latency is measured 10 minutes after intravenous injection."}, "Solubility in solvents": {"assay": "Solubility in solvents", "format": "physicochemical"}, "[1]": {"system": "mice inoculated in their right paw with NCTC 2472 cells", "assay": "Osteosarcoma-induced thermal hyperalgesia, unilateral hot plate test", "format": "in vivo, mouse", "source_text": "The comparison and possible facilitation of compound 15 analgesic effect by Gabapentin was investigated on the animal model of bone cancer induced by intraosteal inoculation of NCTC2472 tumor cells (Honoré P. et al., Neuroscience 98 (2000), 585-588 Mendez L. et al. J. Neurosci. Methods 113 (2002), 91-97).\nThe methods used to measure the analgenisc effects (antihyperalgesia and allodynia) of various compounds of this animal model have been described in details and are used (Menendez L. et al. Brain Res. 969 (2003), 102-109) in these series of experiments.\nOsteosarcoma-induced thermal hyperalgesia measured by the unilateral hot plate test was inhibited by the oral administration of compound 15 (25 mg/kg). This inhibitory effect peaked 20-40 min after compound 15 administration, disappearing at time 60 (FIG. 4A).\nAt this concentration the antagonist is unable to enter the brain supporting a peripheral analgesic effects of compound 15. ** p≦0.01. […]"}}, "note": "Marks after values point to notes of the source that are not given here.", "data": [{"compound": "1-(2-(1-(1-ethoxycarbonyloxyethoxycarbonyl)-2-hydroxypropylcarbamoyl)-3-thiophen-3-ylpropyldisulfanylmethyl)-3-methylsulfanylpropyl-ammonium trifluoroacetate [Compound 12e]", "values": [{"measurement": "Log Kow", "setting": "Log Kow", "value": 0.76}]}, {"compound": "1-(2-(1-ethoxycarbonylmethyloxycarbonylethylcarbamoyl)-3-thiophen-3-yl-propyldi sulfanylmethyl)-3-methylsulfanylpropyl-ammonium trifluoroacetate [Compound 12d]", "values": [{"measurement": "Log Kow", "setting": "Log Kow", "value": 1.35}]}, {"compound": "CSCCC(N)CSSCC(Cc1ccsc1)C(=O)NC(C)C(=O)OCC(COC(C)=O)OC(C)=O.O=C(O)C(F)(F)F", "note": "(stereo not shown) [Compound 12a, 1-(2-(1-(2,3-diacetoxypropoxycarbonyl)-ethylcarbamoyl)-3-thiophen-3-ylpropyldisulfanylmethyl)-3-methylsulfanylpropyl-ammonium trifluoroacetate]", "values": [{"measurement": "Log Kow", "setting": "Log Kow", "value": 1.31}]}, {"compound": "CSCCC(N)CSSCC(Cc1ccsc1)C(=O)NC(C)C(=O)OCCS(C)(=O)=O.O=C(O)C(F)(F)F", "note": "(stereo not shown) [Compound 12b, 1-(2-(1-(2-methanesulfonylethoxycarbonyl)-ethylcarbamoyl)-3-thiophen-3-ylpropyldisulfanylmethyl)-3-methylsulfanylpropyl-ammonium trifluoroacetate]", "values": [{"measurement": "Log Kow", "setting": "Log Kow", "value": "−0.13"}]}, {"compound": "CCOC(=O)OC(C)OC(=O)C(C)NC(=O)C(CSSCC(N)CCSC)Cc1ccsc1.O=C(O)C(F)(F)F", "note": "(stereo not shown) [Compound 12c]", "values": [{"measurement": "Log Kow", "setting": "Log Kow", "value": 1.63}]}, {"compound": "CSCCC(N)CSSCC(Cc1ccsc1)C(=O)NC(C)C(=O)OC(COC(C)=O)COC(C)=O.O=C(O)C(F)(F)F", "note": "(stereo not shown) [Compound 12f, 1-(2-(1-(2-acetoxy-1-acetoxymethylethoxycarbonyl)-ethylcarbamoyl)-3-thiophen-3-ylpropyldisulfanylmethyl)-3-methylsulfanylpropyl-ammonium trifluoroacetate]", "values": [{"measurement": "Log Kow", "setting": "Log Kow", "value": 1.31}]}, {"compound": "CSCCC(N)CSSCC(Cc1ccsc1)C(=O)NC(C)C(=O)OC(CO)CO.O=C(O)C(F)(F)F", "note": "(stereo not shown) [Compound 12g, 1-(2-(1-(2-hydroxy-1-hydroxymethylethoxycarbonyl)-ethylcarbamoyl)-3-thiophen-3-ylpropyldisulfanylmethyl)-3-methylsulfanylpropyl-ammonium trifluoroacetate]", "values": [{"measurement": "Log Kow", "setting": "Log Kow", "value": "−0.29"}]}, {"compound": "CSCCC(N)CSSCC(Cc1ccsc1)C(=O)NC(C)C(=O)OCC1OC(O)C(O)C(O)C1O.O=C(O)C(F)(F)F", "note": "(stereo not shown) [Compound 12h, 1-(2-(1-(3,4,5,6-tetrahydroxytetrahydropyran-2-ylmethoxycarbonyl)ethylcarbamoyl)-3-thiophen-3-yl-propyldisulfanylmethyl)-3-methylsulfanylpropyl-ammonium trifluoroacetate]", "values": [{"measurement": "Log Kow", "setting": "Log Kow", "value": "−1.15"}]}, {"compound": "CCOC(=O)OC(C)OC(=O)C(NC(=O)C(CSSCC(N)CCSC)Cc1ccccc1)C(C)O.O=C(O)C(F)(F)F", "note": "(stereo not shown) [Compound 12i]", "values": [{"measurement": "Log Kow", "setting": "Log Kow", "value": 0.76}]}, {"compound": "CSCCC(N)CSSCC(Cc1ccccc1)C(=O)NC(C(=O)OC(COC(C)=O)COC(C)=O)C(C)O.O=C(O)C(F)(F)F", "note": "(stereo not shown) [Compound 12j, 1-(2-(1-(2-acetoxy-1-acetoxymethyl-thoxycarbonyl)-2-hydroxypropylcarbamoyl)-3-phenylpropyldisulfanylmethyl)-3-methylsulfanylpropyl-ammonium trifluoroacetate]", "values": [{"measurement": "Log Kow", "setting": "Log Kow", "value": 0.44}]}, {"compound": "CCOC(=O)OC(C)OC(=O)CNC(=O)C(CSSCC(N)CCSC)Cc1ccccc1.O=C(O)C(F)(F)F", "note": "(stereo not shown) [Compound 12k]", "values": [{"measurement": "Log Kow", "setting": "Log Kow", "value": 1.39}]}, {"compound": "CSCCC(N)CSSCC(Cc1ccccc1)C(=O)NC(Cc1ccccc1)C(=O)OCc1ccccc1", "note": "(stereo not shown) [Compound A, reference compound]", "values": [{"measurement": "% analgesia", "setting": "male OF1 mice; 5 mg/kg IV, ethanol/Cremophor EL/water 10/10/80, 10 min after injection (Table 5)", "value": "51.1 ± 7.6", "unit": "%"}, {"measurement": "Solubility in aqueous or hydrophilic solvents", "setting": "Solubility in solvents", "value": "poorly soluble"}]}, {"compound": "NCC1(CC(=O)O)CCCCC1", "note": "[Gabapentin]", "values": [{"measurement": "Antihyperalgesic effect", "setting": "[1]; 6.25 mg/kg i.p., 60 minutes after injection (FIG. 6B)", "value": "subeffective"}, {"measurement": "Antihyperalgesic effect", "setting": "[1]; 12.5 mg/kg i.p., 60 minutes after injection", "value": "significant antihyperalgesic effect"}, {"measurement": "Antihyperalgesic effect", "setting": "[1]; 25 mg/kg i.p., 40 and 60 min after injection (FIG. 6A)", "value": "clear antihyperalgesic effect"}, {"measurement": "Withdrawal latencies", "setting": "[1]; 25 mg/kg i.p., 20 min after administration", "value": "No modification of withdrawal latencies"}, {"measurement": "Antihyperalgesic effect", "setting": "[1]; 25 mg/kg i.p., 60 minutes after injection", "value": "completely suppressed the hyperalgesic effect"}, {"measurement": "Withdrawal latencies of contralateral paws", "setting": "[1]; 6.25-25 mg/kg i.p.", "value": "None of these doses of Gabapentin modified the withdrawal latencies of contralateral paws"}, {"measurement": "Antihyperalgesic effect when administered alone", "setting": "[1]; compound 15 12.5 mg/kg 20 min before testing, or Gabapentin 6.25 mg/kg 60 min before testing", "value": "do not produce any antihyperalgesic effect"}]}, {"compound": "CN1CC[C@]23c4c5ccc(O)c4O[C@H]2[C@@H](O)C=C[C@H]3[C@H]1C5", "note": "[morphine, reference compound]", "values": [{"measurement": "% analgesia", "setting": "male OF1 mice; 1 mg/kg IV, 10 min after injection (Table 6)", "value": "45.5 ± 4.5", "unit": "%"}, {"measurement": "% analgesia", "setting": "male OF1 mice; 2.5 mg/kg IV, 10 min after injection (Table 6)", "value": "66 ± 6.0", "unit": "%"}, {"measurement": "% analgesia", "setting": "male OF1 mice; 5 mg/kg IV, 10 min after injection (Table 6)", "value": "100*** %"}, {"measurement": "ED50", "setting": "male OF1 mice; Mus musculus, iv, 10 min, read-out: ED50 (analgesic response)", "value": "1.3 ± 0.2", "unit": "mg/kg"}]}, {"compound": "CCCCCc1cc(O)c2c(c1)OC(C)(C)[C@@H]1CCC(C)=C[C@@H]21", "note": "[Δ^9 THC, Δ^9 tetrahydrocannabinol, reference compound]", "values": [{"measurement": "% analgesia", "setting": "male OF1 mice; 0.188 mg/kg IV, EtOH/Cremophor EL/water, 10 min after injection", "value": "0.4 ± 3.9", "unit": "%"}, {"measurement": "% analgesia", "setting": "male OF1 mice; 0.375 mg/kg IV, EtOH/Cremophor EL/water, 10 min after injection", "value": "18.2 ± 6.4", "unit": "%"}, {"measurement": "% analgesia", "setting": "male OF1 mice; 0.75 mg/kg IV, EtOH/Cremophor EL/water, 10 min after injection", "value": "41.2 ± 12.7", "unit": "%"}, {"measurement": "% analgesia", "setting": "male OF1 mice; 1.5 mg/kg IV, EtOH/Cremophor EL/water, 10 min after injection", "value": "57.2 ± 10.9", "unit": "%"}]}]}
